How the values were obtained:
myosin+native RLC = molecular target: T1, myosin+native RLC (Sus scrofa, UniProt P79293); experiment: NADH-coupled actin-activated ATPase assay, myosin + native RLC; type: biochemical; conditions: 1 μM myosin, rabbit skeletal actin, 25° C., 1% DMSO
T1 construct: Full-length myosin was resuspended to 1 mg/mL
Method: (§1) Full-length myosin was resuspended to 1 mg/mL in a buffer containing 500 mM KCl, 10 mM KPi, 15 mM CDTA, pH 8.5. Triton-X was then added to a final concentration of […], and the suspension was agitated for 15 minutes at room temperature to selectively remove the regulatory light chain (RLC). RLC-removed myosin was then precipitated and collected and resuspended in a buffer containing 400 mM KCl, 50 mM Mops, pH 7, 2 mM MgCl2, and 1 mM DTT. Recombinantly expressed and purified human ventricle RLC was added in a 3-fold molar excess to myosin and incubated on ice for 2 hours to allow for reassociation of the RLC onto myosin. Triton (0.1%) was added to the reaction to prevent any non-specific binding events. RLC-exchanged myosin was then precipitated and collected and resuspended in a buffer containing 12 mM PIPES, pH 6.8, […], 2 mM MgCl2, and 1 mM DTT. RLC removal and exchange were confirmed by SDS-PAGE and proteins were visualized using coomassie stain.
(§2) Myosin was resuspended in buffer A (f.c.=12 mM PIPES, pH 6.8, 30 mM KCl, 2 mM MgCl2, 1 mM DTT, 0.1 mg/mL BSA, 0.01% (v/v) Antifoam 204, and 0.6% (v/v) PK/LDH (final reaction contains ≥3.6 U/mL PK and >5.4 U/mL LDH)) at final concentrations of 1 μM for myosin+native RLC and 2 μM for myosin+removed RLC and myosin+human ventricle RLC. Buffer A was then mixed with an equal volume of buffer B (f.c.=12 mM PIPES, pH 6.8, 30 mM KCl, 2 mM MgCl2, 1 mM DTT, 0.1 mg/mL BSA, 0.01% (v/v) Antifoam 204, 0.5 mM NADH, 1.5 mM phosphoenolpyruvate, 1 mM ATP, and 0.3 mg/mL filamentous rabbit skeletal actin) in a 384-well plate. Dose-dependent compound effects were assessed by adding the compounds at varying concentrations between 100 μM and 2 nM, all with a constant final DMSO concentration of 1% v/v. The reactions were run at a constant temperature of 25° C. in the plate reader to monitor the change in A340 over time. Measurements were taken every 90 sec for 75 min to generate raw time-domain absorbance data, which was processed to normalized reaction rates. Normalized enzymatic rates were calculated, using rates observed in 1% (v/v) in DMSO as 100% and 0 slope as 0%. Compound-specific activity curves were generated by plotting the normalized rates versus compound concentration and fitting the data to a 4-parameter logistic model. In addition to the fit parameters, the IC25% was calculated, relative to the 100% normalized value.

myosin+removed RLC = molecular target: T2, myosin+removed RLC (Sus scrofa, UniProt P79293); experiment: NADH-coupled actin-activated ATPase assay, myosin + removed RLC; type: biochemical; conditions: 2 μM myosin, rabbit skeletal actin, 25° C., 1% DMSO
T2 construct: Full-length myosin was resuspended to 1 mg/mL
Method: as §1, §2

T1 sequence (P79293 whole entry): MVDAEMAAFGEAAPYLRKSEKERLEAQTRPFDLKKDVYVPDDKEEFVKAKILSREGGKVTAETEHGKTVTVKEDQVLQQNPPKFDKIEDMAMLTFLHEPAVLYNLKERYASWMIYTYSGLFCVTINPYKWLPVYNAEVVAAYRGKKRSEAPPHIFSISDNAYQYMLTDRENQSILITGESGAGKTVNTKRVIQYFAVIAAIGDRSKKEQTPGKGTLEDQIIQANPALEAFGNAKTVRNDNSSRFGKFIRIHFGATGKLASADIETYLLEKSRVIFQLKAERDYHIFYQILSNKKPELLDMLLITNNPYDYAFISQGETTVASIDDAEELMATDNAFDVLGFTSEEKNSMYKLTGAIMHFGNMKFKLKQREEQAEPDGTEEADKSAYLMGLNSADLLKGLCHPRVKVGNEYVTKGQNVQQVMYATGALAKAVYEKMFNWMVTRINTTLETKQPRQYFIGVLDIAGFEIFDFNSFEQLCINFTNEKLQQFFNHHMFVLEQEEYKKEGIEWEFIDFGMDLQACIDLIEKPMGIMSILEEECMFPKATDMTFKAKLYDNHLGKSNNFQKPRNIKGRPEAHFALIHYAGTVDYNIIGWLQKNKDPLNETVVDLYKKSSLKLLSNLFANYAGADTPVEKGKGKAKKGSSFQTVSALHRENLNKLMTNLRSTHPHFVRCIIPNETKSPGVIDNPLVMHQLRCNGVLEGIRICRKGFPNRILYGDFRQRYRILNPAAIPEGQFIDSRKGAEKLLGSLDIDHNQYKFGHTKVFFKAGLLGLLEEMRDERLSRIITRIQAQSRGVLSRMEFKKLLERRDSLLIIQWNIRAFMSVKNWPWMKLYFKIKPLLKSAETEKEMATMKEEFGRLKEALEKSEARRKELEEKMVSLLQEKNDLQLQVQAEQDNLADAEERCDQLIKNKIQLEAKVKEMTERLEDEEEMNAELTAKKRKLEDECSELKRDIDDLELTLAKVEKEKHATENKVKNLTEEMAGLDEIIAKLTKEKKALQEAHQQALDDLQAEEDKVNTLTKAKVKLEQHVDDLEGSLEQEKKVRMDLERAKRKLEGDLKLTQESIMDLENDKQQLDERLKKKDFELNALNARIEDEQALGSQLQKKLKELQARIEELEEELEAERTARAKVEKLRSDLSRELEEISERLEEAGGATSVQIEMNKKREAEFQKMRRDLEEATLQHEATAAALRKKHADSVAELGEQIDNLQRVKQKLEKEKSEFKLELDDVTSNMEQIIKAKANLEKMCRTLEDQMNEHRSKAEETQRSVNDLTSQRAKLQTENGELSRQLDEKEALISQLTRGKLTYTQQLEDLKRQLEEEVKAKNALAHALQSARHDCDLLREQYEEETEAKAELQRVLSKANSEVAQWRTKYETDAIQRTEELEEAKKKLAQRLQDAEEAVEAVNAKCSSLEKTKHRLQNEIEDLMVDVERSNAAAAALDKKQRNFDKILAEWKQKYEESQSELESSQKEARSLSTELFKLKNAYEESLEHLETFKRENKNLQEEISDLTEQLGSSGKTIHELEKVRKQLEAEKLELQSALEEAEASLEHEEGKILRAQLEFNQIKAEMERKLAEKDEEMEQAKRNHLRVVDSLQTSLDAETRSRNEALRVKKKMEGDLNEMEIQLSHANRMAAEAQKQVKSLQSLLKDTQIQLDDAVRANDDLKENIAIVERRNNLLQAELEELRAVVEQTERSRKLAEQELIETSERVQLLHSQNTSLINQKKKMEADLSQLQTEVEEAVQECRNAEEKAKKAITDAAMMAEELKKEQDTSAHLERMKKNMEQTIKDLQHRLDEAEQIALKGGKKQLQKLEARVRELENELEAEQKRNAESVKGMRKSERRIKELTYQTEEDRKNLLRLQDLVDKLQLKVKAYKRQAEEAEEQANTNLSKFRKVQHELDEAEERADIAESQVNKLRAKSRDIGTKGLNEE
T2 sequence (P79293 whole entry): as above

N#Cc1cnc2c(c1)OCC2NC(=O)CN1Cc2c(ccc(F)c2F)NC1=O (single isomer, unassigned) [Compound B65]
Potency, Full-length myosin + native porcine ventricle RLC (myosin+native RLC): 0.55 µM | Potency, Full-length myosin + RLC removed (myosin+removed RLC): >100.0 µM

CC(NC(=O)CN1Cc2cc(F)ccc2NC1=O)c1ccc(C#N)cc1F (single isomer, unassigned) [Compound B206]
Potency, Full-length myosin + native porcine ventricle RLC (myosin+native RLC): 0.97 µM | Potency, Full-length myosin + RLC removed (myosin+removed RLC): >100.0 µM

C[C@@H](NC(=O)CN1Cc2c(ccc(F)c2F)NC1=O)c1ncc(C#N)cc1F [Compound B141, (R)—N-(1-(5-cyano-3-fluoropyridin-2-yl)ethyl)-2-(5,6-difluoro-2-oxo-1,4-dihydroquinazolin-3(2H)-yl)acetamide]
Potency, Full-length myosin + native porcine ventricle RLC (myosin+native RLC): 15.48 µM | Potency, Full-length myosin + RLC removed (myosin+removed RLC): >100.0 µM

O=C(CN1Cc2cc(F)ccc2NC1=O)N[C@@H]1COc2cc(F)cc(F)c21 [Compound B145]
Potency, Full-length myosin + native porcine ventricle RLC (myosin+native RLC): 1.19 µM | Potency, Full-length myosin + RLC removed (myosin+removed RLC): >100.0 µM

O=C(CN1Cc2c(ccc(F)c2F)NC1=O)N[C@@H]1COc2cc(F)cc(F)c21 [Compound B147]
Potency, Full-length myosin + native porcine ventricle RLC (myosin+native RLC): 0.63 µM | Potency, Full-length myosin + RLC removed (myosin+removed RLC): >100.0 µM

C[C@H](NC(=O)CN1Cc2c(ccc(F)c2F)NC1=O)c1ccc(C#N)cc1F [Compound B189]
Potency, Full-length myosin + native porcine ventricle RLC (myosin+native RLC): 0.39 µM | Potency, Full-length myosin + RLC removed (myosin+removed RLC): >100.0 µM

C[C@H](NC(=O)CN1Cc2c(ccc(F)c2F)NC1=O)c1ncc(F)cc1F [Compound B191]
Potency, Full-length myosin + native porcine ventricle RLC (myosin+native RLC): 0.45 µM | Potency, Full-length myosin + RLC removed (myosin+removed RLC): >100.0 µM

C[C@H](NC(=O)CN1Cc2cc(F)ccc2NC1=O)c1ncc(C#N)cc1F [Compound B199]
Potency, Full-length myosin + native porcine ventricle RLC (myosin+native RLC): 0.56 µM | Potency, Full-length myosin + RLC removed (myosin+removed RLC): >100.0 µM

C[C@H](NC(=O)CN1Cc2cc(F)ccc2NC1=O)c1ccc(F)cc1F [Compound B247, N-[(1S)-1-(2,4-Difluorophenyl)ethyl]-2-(6-fluoro-2-oxo-1,4-dihydroquinazolin-3-yl)acetamide]
Potency, Full-length myosin + native porcine ventricle RLC (myosin+native RLC): 0.97 µM | Potency, Full-length myosin + RLC removed (myosin+removed RLC): >100.0 µM

O=C(CN1C(=O)Nc2cccnc2C12CC2)N[C@@H]1COc2cc(F)cc(F)c21 [Compound N33]
Potency, Full-length myosin + native porcine ventricle RLC (myosin+native RLC): 0.40 µM | Potency, Full-length myosin + RLC removed (myosin+removed RLC): >100.0 µM
